Data on two compounds can be found in US20170298090A1, “Modulators of ROR-gamma Receptors, Composition and Use Thereof” (KULING THERAPEUTICS, priority 2016, published 2017).

What is called IC50 is the point on the concentration scale where inhibition reaches its midpoint.

The subject of series [1] is Th17 cells. Briefly: Th17 differentiation of mouse naive CD4+ T cells, IL-17/IL-17F intracellular staining. The class given is cell-based. The note with it: for inhibition of TH17 differentiation (in words): 2-10 μM, in vitro culture; for IL-17 and IL-17F expression in Th17 cells (in words): FIG. 1. As for the experimental part:
T-cell Isolation and Differentiation—Mouse T cell differentiation was performed and analyzed by intracellular staining as described. […] The Journal of biological chemistry 286: 22707-22710 (2011); Wang, X., et al. Transcription of Il17 and Il17f is controlled by conserved noncoding sequence 2. Immunity 36: 23-31 (2012). Briefly, mouse naïve CD4^+ T cells (CD4^+CD25^−CD62L^hi-CD44^lo) were isolated from spleens and lymph nodes by FACS sorting. Th17 differentiation was performed with 15 ng ml^− IL-6 and 2.5 ng ml^− TGF-β in the presence of 1 μg ml^− anti-CD3 (plate bound) and 1 μg ml^− anti-CD28 (plate bound) for 4 days. When indicated, different concentrations of UA, KL001, other UA analogs or small molecules (dissolved in DMSO) were added at the beginning of Th17 differentiation. The mature Th17 cells were restimulated with 50 ng ml^− PMA (phorbol 12-myristate 13-acetate) and 500 ng ml^− inomycin in the presence of BD GolgiStop™ for 6 hrs, stained intracellularly for IL-17 and IL-17F, and then analyzed by flow cytometry.
UA and its analogs KL001 to KL005, 201702-1 to 201702-4, and 201509-1 to 201509-3 inhibit TH17 differentiation. Mouse naïve CD4+ T cells were cultured under Th17 polarizing condition in the presence of above chemicals (2-10 μM) or DMSO control (Ctrl) for 4 days and then restimulated for IL-17 and IL-17F staining (FIG. 1). […] The Journal of biological chemistry 286: 22707-22710 (2011), 2 μM UA inhibited ˜80% IL-17 expression and ˜50% IL-17F expression, both of which were reported to contribute TH17-mediated autoimmune diseases Yang, X. O., Chang, S. H., Park, H. et al. Regulation of inflammatory responses by IL-17F. The Journal of experimental medicine, 205: 1063-1075 (2008). […] (FIG. 1), whereas other UA analogs inhibited TH17 differentiation at a less degree (FIG. 1 and FIG. 6).

Series [2] has as its system experimental autoimmune encephalomyelitis (EAE). Briefly: MOG-induced EAE, preventative disease model. The class given is in vivo, mice. Conditions: for IL-17 expression of T cells infiltrated into the central nerve system: 100 mg/kg i.p. every other day; for effect on EAE disease (in words): 100 mg/kg i.p. every other day after first MOG immunization. As for the experimental part: (§1) MOG-induced Experimental Autoimmune Encephalomyelitis (EAE)—EAE induction were performed by immunizing mice twice with MOG35-55 peptide (amino acids 35-55; MEVGWYRSPFSROVHLYRNGK) emulsified in CFA followed by pertussis toxin injection with slight modifications, and analyzed as previously described. […] The Journal of biological chemistry 286: 22707-22710 (2011); Wang, X., et al. Transcription of Il17 and Il17f is controlled by conserved noncoding sequence 2. Immunity 36: 23-31 (2012). Briefly, the disease scores were assigned on a scale of 0-5 as follows: 0, none; 1, limp tail or waddling gait with tail tonicity; 2, wobbly gait; 3, hindlimb paralysis; 4, hindlimb and forelimb paralysis; 5, death.
The Journal of biological chemistry 286: 22707-22710 (2011).

The test system is the same in series [3]. Briefly: MOG-induced EAE, therapeutic disease model. The class given is in vivo, mice. The note with it: ~250 mg/kg gavage twice daily from Day 9. As for the experimental part:
as §1
To test the therapeutic potential of KL001, EAE was first induced by MOG immunization and PTX injection as described.

The subject of series [4] is imiquimod (IMQ)-induced psoriasis. The experiment in a line: IMQ-induced psoriasis, preventative disease model. The class given is in vivo, C57BL/6 mice. Conditions: ~250 mg/kg gavage twice daily. How it is done:
IMQ-induced psoriasis model—The mouse psoriasis model was induced according to previous described with minor modifications. van der Fits L, et al. (2009) Imiquimod-induced psoriasis-like skin inflammation in mice is mediated via the IL-23/IL-17 axis. J Immunol 182(9):5836-5845. Briefly, 7-9 weeks old female C57BL/6 mice were used to induce psoriasis. On day 0, the hair was removed from the dorsal skin of the mice after anaesthetizing with pentobarbital (˜0.2 ml/20 g body weight by i.p.). On day 1, psoriasis was induced […] by applying 62.5 mg 5% imiquimod cream to the dorsal skin after anaesthesia on a daily base. In the preventative disease model, KL001 (dissolved in 0.5% methylcellulose (MC)) or 0.5% MC (control group) was orally administrated into C57BL/6 mice by gavage at a dosage of ˜250 mg/kg body weight twice daily starting 2 days before induction of psoriasis (Day −2). The mice were then sacrificed on Day 5, and the skin tissues were then removed for H&E staining and mRNA expression analysis. […] The expression of Il17, Il17f and Rorc (encoding RORγt) were then quantified by realtime PCR and normalized to Actb gene by using the following primers: Actb, F: […]/R (SEQ ID NO.1): […] […]

For series [5], the system named is Th17 cells. The note with it: previous studies (Xu et al. 2011); read-out: IC50 in inhibiting Th17 differentiation; cited from earlier work.
The target in the next series is STAT3 (Homo sapiens, UniProt P40763). The note with it: previous studies; cited from earlier work.
Another series has as its system rodents. The note with it: cited from earlier work.
Setting [6] is: 2 μM, Th17 polarizing condition, 4 days.

Entries after “also recorded” stand apart in the source; their conditions may differ. Read-outs that look alike come from different tables or passages of the source.

Chain of STAT3 (P40763 whole entry, species assumed): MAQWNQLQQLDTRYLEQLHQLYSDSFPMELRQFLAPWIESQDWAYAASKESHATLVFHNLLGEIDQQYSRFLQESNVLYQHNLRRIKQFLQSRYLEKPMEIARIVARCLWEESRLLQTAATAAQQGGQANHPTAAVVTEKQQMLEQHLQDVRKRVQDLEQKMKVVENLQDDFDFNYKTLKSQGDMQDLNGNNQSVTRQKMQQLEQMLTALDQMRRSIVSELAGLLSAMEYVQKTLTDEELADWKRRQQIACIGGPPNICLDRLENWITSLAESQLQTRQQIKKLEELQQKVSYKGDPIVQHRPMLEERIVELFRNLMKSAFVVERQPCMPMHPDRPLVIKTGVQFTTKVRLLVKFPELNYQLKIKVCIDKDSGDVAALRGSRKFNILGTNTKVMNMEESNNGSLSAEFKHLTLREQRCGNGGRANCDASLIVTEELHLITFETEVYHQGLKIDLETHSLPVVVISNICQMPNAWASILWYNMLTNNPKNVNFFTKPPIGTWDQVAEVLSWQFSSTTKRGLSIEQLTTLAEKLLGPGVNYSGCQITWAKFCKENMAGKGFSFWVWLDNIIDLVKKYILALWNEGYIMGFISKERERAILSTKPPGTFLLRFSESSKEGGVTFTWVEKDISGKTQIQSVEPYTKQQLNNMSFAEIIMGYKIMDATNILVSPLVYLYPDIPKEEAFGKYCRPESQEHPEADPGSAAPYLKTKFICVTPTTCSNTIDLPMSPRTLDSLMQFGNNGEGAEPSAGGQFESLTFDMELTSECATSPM

On to `Cc1oc(=O)oc1COC(=O)[C@]12CC[C@@H](C)[C@H](C)[C@H]1C1=CC[C@@H]3[C@@]4(C)CC[C@H](O)C(C)(C)[C@@H]4CC[C@@]3(C)[C@]1(C)CC2` [KL001, (5-methyl-2-oxo-1,3-dioxol-4-yl)methyl (1S,2R,4aS,6aS,6bR,8aR,10S,12aR,12bR,14bS)-10-hydroxy-1,2,6a,6b,9,9,12a-heptamethyl-1,3,4,5,6,6a,6b,7,8,8a,9,10,11,12,12a,12b,13,14b-octadecahydropicene-4a(2H)-carboxylate], for which the “inhibition of TH17 differentiation (in words)” value with Th17 cells [1] (4 days) was “comparable level to UA; also recorded: comparable efficacy with UA”. Moreover, the “IL-17 and IL-17F expression in Th17 cells (in words)” value in the series with Th17 cells [1] is given as “inhibited”. For the same compound, in the series on Th17 cells [1] (Mus musculus, CD4+ T, readout of IL-17 staining, titration, read-out: IC50 in inhibiting Th17 differentiation), the IC50 is about 490 nM. In series [2], the “IL-17 expression of T cells infiltrated into the central nerve system” value is “significantly reduced” and the “effect on EAE disease (in words)” value was “greater degree than UA; also recorded: ameliorated”. For the same compound, in series [3], the “effect on EAE disease (in words)” value is recorded as “significantly reduced the disease severity; also recorded: ameliorated” and the “reduction of average disease scores vs control group” value turned out to be 50%. In series [4], the “psoriatic symptoms, redness and roughness of the skin (in words)” value is “visually and greatly reduced; also recorded: ameliorated psoriatic symptoms”. The “expression of IL-17 in skin samples” value in series [4] (mRNA) is recorded as “notably reduced”.
Take `C[C@H]1[C@H](C)CC[C@]2(C(=O)O)CC[C@]3(C)C(=CC[C@@H]4[C@@]5(C)CC[C@H](O)C(C)(C)[C@@H]5CC[C@]43C)[C@H]12` [UA, ursolic acid, reference compound]: in the series on Th17 cells [1] (setting [6]), the “inhibition of IL-17F expression” value is listed as about 50% and the “inhibition of IL-17 expression” value is reported as about 80%. In the series with Th17 cells [1] (4 days), the “inhibition of TH17 differentiation (in words)” value is recorded as “inhibit”. For the same compound, in the series with Th17 cells [1], the “IL-17 and IL-17F expression in Th17 cells (in words)” value is reported as “inhibited”. For the same compound, in series [2], the “IL-17 expression of T cells infiltrated into the central nerve system” value is reported as “significantly reduced” and the “effect on EAE disease (in words)” value is recorded as “ameliorated”. For the same compound, the “effect on EAE disease (in words)” value in series [3] is recorded as “did not affect; also recorded: but not UA, ameliorated”. For the same compound, the IC50 in the series with Th17 cells [5] was 680 nM. For the same compound, the “concentration at which inhibitory activity on STAT3 was observed” value on STAT3 is given as “higher than 25 μM”. In addition, the “acute toxicity LD50” value with rodents (intraperitoneal injection (Lee et al. 2010)) is listed as over 637 mg/kg. Also, the “acute toxicity LD50” value with rodents (oral administration (Lee et al. 2010)) was 8330 mg/kg.
